The values that follow are results of earlier work, collected in paper PMC7362765 (Accounts of chemical research, 2019).

The data set relates to DF3. The data set can be described thus: oxidation to quinone […], saturation kinetics. Type of data set: biochemical, synthetic construct. The note with it: diiron form, ambient O2; recounted from the authors' own ref 19.

Consider `CC(C)(C)c1cc(O)c(O)c(C(C)(C)C)c1` [compound 6, 3,5-di-tert-butylcatechol], for which the Km is 2100 µM.

One may read the Km as the substrate concentration at which the rate is half of its maximum.
